Here are results for 10 compounds from ChEMBL document CHEMBL1130599, “Novel protein kinase C inhibitors: alpha-terthiophene derivatives” (Bioorg Med Chem Lett, 1998).

This assay in a line: Inhibition of protein kinase C(1:1mixture of PKC alpha & beta) expressed in Sf9 insect cells. Type of assay: cell-based.
As usually defined, the IC50 is the concentration that inhibits the measured activity by half. Regarding `O=Cc1ccc(-c2cccs2)s1`, the IC50 was determined as 700 µM. `O=Cc1ccc(-c2ccc(-c3ccc(CO)s3)s2)s1`: the IC50 worked out at 0.7 µM. Take `N#Cc1ccc(-c2ccc(-c3cccs3)s2)s1`: the concentration for half-maximal inhibition (IC50) is 2 µM. Regarding `c1csc(-c2ccc(-c3cccs3)s2)c1`, the IC50 is 10 µM. In the case of `OCc1ccc(-c2ccc(-c3cccs3)s2)s1`, the IC50 came to 4 µM.

Take `O=Cc1ccc(-c2ccc(-c3ccc(C=O)s3)s2)s1`: the IC50 came out at 0.3 µM. Consider `NCc1ccc(-c2ccc(-c3cccs3)s2)s1`, for which the IC50 amounted to 7 µM.

`O=Cc1ccc(-c2ccc(-c3cccs3)s2)s1`: the IC50 amounted to 0.7 µM. Turning to `O=Cc1cccs1` [2-THIOPHENENECARBOXALDEHYDE], the IC50 is greater than 4000 µM. With `CN1CCN(CCCN2c3ccccc3Sc3ccc(C(F)(F)F)cc32)CC1` [TRIFLUOPERAZINE], the IC50 turned out to be 500 µM.
